Laboratory results published in US20110130386A1, “DNA-PK INHIBITORS” (priority 2008, published 2011).
pIC50: −log10 of the molar value.

Each compound was assayed against Mammalian DNA-PK (Homo sapiens, UniProt P78527) (assay: DNA-PK inhibition assay (ELISA of p53 Ser15 phosphorylation of GST-p53N66)). Settings: DNA-PK from HeLa nuclear extract; mean value; read-out: mean IC50.
Assay type: biochemical, Mammalian (isolated from HeLa cell nuclear extract)
Description: In order to assess the inhibitory action of the compounds against DNA-PK in vitro, the following assay was used to determine IC50 values.
To the assay mix, varying concentrations of inhibitor (in DMSO at a final concentration of 1%) were added. After 10 minutes of incubation, ATP was added to give a final concentration of […] along with a 30 mer double stranded DNA oligonucleotide (final concentraion of 0.5 ng/ml) to initiate the reaction. After 1 hour with shaking, 150 μl of phosphate buffered saline (PBS) was added to the reaction and 5 μl then transferred to a 96 well opaque white plate containing 45 μl of PBS per well where the GSTp53N66 substrate was allowed to bind to the wells for 1 hour. To detect the phosphorylation event on the serine 15 residue of p53 elicited by DNA-PK a p53 phosphoserine-15 antibody (Cell Signaling Technology) was used in a basic ELISA procedure. An anti-rabbit HRP conjugated secondary antibody (Pierce) was then employed in the ELISA before the addition of chemiluminescence reagent. (NEN Renaissance) to detect the signal as measured by chemiluminescent counting via a TopCount NXT (Packard).
The enzyme activity for each compound is then calculated using the following equation: […]
The results are discussed below as IC50 values (the concentration at which 50% of the enzyme activity is inhibited). These are determined over a range of different concentrations, normally from 10 μM down to 0.001 μM. Such IC50 values are used as comparative values to identify increased compound potencies.

In order of falling pIC50:
1. CN(C)C1CCN(Cc2ccc(-c3cccc4c(=O)cc(N5CCOCC5)oc34)c3sc4ccccc4c23)C1 (stereo not drawn) [4ah]  8.92
2. CN(C)[C@H]1CCN(Cc2ccc(-c3cccc4c(=O)cc(N5CCOCC5)oc34)c3sc4ccccc4c23)C1 [4bu]  8.88
3. O=c1cc(N2CCOCC2)oc2c(-c3ccc(CN4CCN(CCO)CC4)c4c3sc3ccccc34)cccc12 [4ab]  8.86
4. CC(C)N1CCN(Cc2ccc(-c3cccc4c(=O)cc(N5CCOCC5)oc34)c3sc4ccccc4c23)CC1 [4aa]  8.76
5. CN(C)[C@@H]1CCN(Cc2ccc(-c3cccc4c(=O)cc(N5CCOCC5)oc34)c3sc4ccccc4c23)C1 [4bv]  8.69
6. CC1CN(Cc2ccc(-c3cccc4c(=O)cc(N5CCOCC5)oc34)c3sc4ccccc4c23)CCN1C (stereo not drawn) [4cb]  8.43
7. O=c1cc(N2CCOCC2)oc2c(-c3ccc(CN4CCCN(CCO)CC4)c4c3sc3ccccc34)cccc12 [4ad]  8.41
8. CCN1CCN(Cc2ccc(-c3cccc4c(=O)cc(N5CCOCC5)oc34)c3sc4ccccc4c23)CC1 [4aq]  8.25
9. O=c1cc(N2CCOCC2)oc2c(-c3ccc(CN4CCCNCC4)c4c3sc3ccccc34)cccc12 [4cr]  8.18
10. CN1CCCCC1CNCc1ccc(-c2cccc3c(=O)cc(N4CCOCC4)oc23)c2sc3ccccc3c12 (stereo not drawn) [4bc]  7.98
11. CN(C)CCNCc1ccc(-c2cccc3c(=O)cc(N4CCOCC4)oc23)c2sc3ccccc3c12 [4d]  7.90
12. CN1CCCC(NCc2ccc(-c3cccc4c(=O)cc(N5CCOCC5)oc34)c3sc4ccccc4c23)C1 (stereo not drawn) [4ck]  7.79
13. O=c1cc(N2CCOCC2)oc2c(-c3ccc(CNCCCN4CCCC4)c4c3sc3ccccc34)cccc12 [4ba]  7.76
14. CN(C)C1CCCN(Cc2ccc(-c3cccc4c(=O)cc(N5CCOCC5)oc34)c3sc4ccccc4c23)C1 (stereo not drawn) [4au]  7.70
15. O=c1cc(N2CCOCC2)oc2c(-c3ccc(CNCCO)c4c3sc3ccccc34)cccc12 [4c]  7.65
16. O=c1cc(N2CCOCC2)oc2c(-c3ccc(CNCCCn4ccnc4)c4c3sc3ccccc34)cccc12 [4ax]  7.58
17. N#CCNCc1ccc(-c2cccc3c(=O)cc(N4CCOCC4)oc23)c2sc3ccccc3c12 [4ar]  7.53
18. O=c1cc(N2CCOCC2)oc2c(-c3ccc(CNCC4CCCO4)c4c3sc3ccccc34)cccc12 (stereo not drawn) [4a]  7.51
19. CC(CN(C)C)NCc1ccc(-c2cccc3c(=O)cc(N4CCOCC4)oc23)c2sc3ccccc3c12 (stereo not drawn) [4bk]  7.49
20. NC1CCCN(Cc2ccc(-c3cccc4c(=O)cc(N5CCOCC5)oc34)c3sc4ccccc4c23)C1 (stereo not drawn) [4cq]  7.44
21. Cn1nccc1CNCc1ccc(-c2cccc3c(=O)cc(N4CCOCC4)oc23)c2sc3ccccc3c12 [4bl]  7.34
22. CN1CCC(NCc2ccc(-c3cccc4c(=O)cc(N5CCOCC5)oc34)c3sc4ccccc4c23)CC1 [4cl]  7.33
23. CN1CCCC1CCNCc1ccc(-c2cccc3c(=O)cc(N4CCOCC4)oc23)c2sc3ccccc3c12 (stereo not drawn) [4av]  7.31
24. CCN1CCCC1CNCc1ccc(-c2cccc3c(=O)cc(N4CCOCC4)oc23)c2sc3ccccc3c12 (stereo not drawn) [4cn]  7.24
25. O=c1cc(N2CCOCC2)oc2c(-c3ccc(CNCCN4CCCCC4)c4c3sc3ccccc34)cccc12 [4co]  7.20
26. O=c1cc(N2CCOCC2)oc2c(-c3ccc(CN4CCCO4)c4c3sc3ccccc34)cccc12 [4as]  7.16
27. O=c1cc(N2CCOCC2)oc2c(-c3ccc(CNCCc4ccccn4)c4c3sc3ccccc34)cccc12 [4aw]  7.16
28. CN(Cc1ccc(-c2cccc3c(=O)cc(N4CCOCC4)oc23)c2sc3ccccc3c12)Cc1cncn1C [4cd]  7.16
29. O=c1cc(N2CCOCC2)oc2c(-c3ccc(CN4CCOC(CO)C4)c4c3sc3ccccc34)cccc12 (stereo not drawn) [4al]  7.14
30. O=c1cc(N2CCOCC2)oc2c(-c3ccc(CNCc4cc[nH]n4)c4c3sc3ccccc34)cccc12 [4be]  7.04
31. Cc1n[nH]c(NCc2ccc(-c3cccc4c(=O)cc(N5CCOCC5)oc34)c3sc4ccccc4c23)n1 [4bi]  7.03
32. O=c1cc(N2CCOCC2)oc2c(-c3ccc(CNn4cnnc4)c4c3sc3ccccc34)cccc12 [4cp]  7.02
33. O=c1cc(N2CCOCC2)oc2c(-c3ccc(CN4CCC[C@H]4CO)c4c3sc3ccccc34)cccc12 [4by]  7.01
34. O=c1cc(N2CCOCC2)oc2c(-c3ccc(CNCc4cccnc4)c4c3sc3ccccc34)cccc12 [4ch]  7.01
35. O=c1cc(N2CCOCC2)oc2c(-c3ccc(CN4CCOCC4)c4c3sc3ccccc34)cccc12 [4ai]  6.99
36. N[C@@H]1CCCC[C@@H]1NCc1ccc(-c2cccc3c(=O)cc(N4CCOCC4)oc23)c2sc3ccccc3c12 [4bn]  6.94
37. CN(C)CC(C)(C)CNCc1ccc(-c2cccc3c(=O)cc(N4CCOCC4)oc23)c2sc3ccccc3c12 [4ay]  6.91
38. O=c1cc(N2CCOCC2)oc2c(-c3ccc(CNC4CCS(=O)(=O)C4)c4c3sc3ccccc34)cccc12 (stereo not drawn) [4bd]  6.90
39. O=c1cc(N2CCOCC2)oc2c(-c3ccc(CNCc4ccncc4)c4c3sc3ccccc34)cccc12 [4cg]  6.86
40. O=c1cc(N2CCOCC2)oc2c(-c3ccc(CN4CC[C@@H](F)C4)c4c3sc3ccccc34)cccc12 [4bp]  6.77
41. O=c1cc(N2CCOCC2)oc2c(-c3ccc(CN4CCC[C@@H]4CO)c4c3sc3ccccc34)cccc12 [4bt]  6.76
42. O=c1cc(N2CCOCC2)oc2c(-c3ccc(CNC4=NCCS4)c4c3sc3ccccc34)cccc12 [4cf]  6.76
43. CN(C)C1CCN(Cc2ccc(-c3cccc4c(=O)cc(N5CCOCC5)oc34)c3sc4ccccc4c23)CC1 [4ae]  6.75
44. O=c1cc(N2CCOCC2)oc2c(-c3ccc(CNCc4ccccn4)c4c3sc3ccccc34)cccc12 [4ci]  6.75
45. O=c1cc(N2CCOCC2)oc2c(-c3ccc(CNCc4nccs4)c4c3sc3ccccc34)cccc12 [4cj]  6.71
46. O=c1cc(N2CCOCC2)oc2c(-c3ccc(CNCc4ccco4)c4c3sc3ccccc34)cccc12 [4bh]  6.65
47. COC1CCCN(Cc2ccc(-c3cccc4c(=O)cc(N5CCOCC5)oc34)c3sc4ccccc4c23)C1 (stereo not drawn) [4af]  6.63
48. CN(CC(=O)O)Cc1ccc(-c2cccc3c(=O)cc(N4CCOCC4)oc23)c2sc3ccccc3c12 [4ac]  6.62
49. O=c1cc(N2CCOCC2)oc2c(-c3ccc(CNCc4ccccc4)c4c3sc3ccccc34)cccc12 [4b]  6.61
50. O=C(C1CC1)N1CCN(Cc2ccc(-c3cccc4c(=O)cc(N5CCOCC5)oc34)c3sc4ccccc4c23)CC1 [4ag]  6.60
51. O=c1cc(N2CCOCC2)oc2c(-c3ccc(CN4CCSCC4)c4c3sc3ccccc34)cccc12 [4bz]  6.59
52. Cn1cccc1CNCc1ccc(-c2cccc3c(=O)cc(N4CCOCC4)oc23)c2sc3ccccc3c12 [4ce]  6.54
53. Cc1cc(NCc2ccc(-c3cccc4c(=O)cc(N5CCOCC5)oc34)c3sc4ccccc4c23)on1 [4bg]  6.52
54. CN(Cc1ccc(-c2cccc3c(=O)cc(N4CCOCC4)oc23)c2sc3ccccc3c12)Cc1ccnn1C [4cc]  6.49
55. C[C@H]1COCCN1Cc1ccc(-c2cccc3c(=O)cc(N4CCOCC4)oc23)c2sc3ccccc3c12 [4aj]  6.39
56. COC1CCN(Cc2ccc(-c3cccc4c(=O)cc(N5CCOCC5)oc34)c3sc4ccccc4c23)CC1 [4am]  6.38
57. O=c1cc(N2CCOCC2)oc2c(-c3ccc(CN4CCSC4)c4c3sc3ccccc34)cccc12 [4bq]  6.36
58. O=c1cc(N2CCOCC2)oc2c(-c3ccc(CN4CC[C@H](F)C4)c4c3sc3ccccc34)cccc12 [4bw]  6.36
59. O=c1cc(N2CCOCC2)oc2c(-c3ccc(CNCCc4ccccc4)c4c3sc3ccccc34)cccc12 [4ct]  6.28
60. COC[C@H]1CCCN1Cc1ccc(-c2cccc3c(=O)cc(N4CCOCC4)oc23)c2sc3ccccc3c12 [4bf]  6.14
61. CC(NCc1ccc(-c2cccc3c(=O)cc(N4CCOCC4)oc23)c2sc3ccccc3c12)c1nccs1 (stereo not drawn) [4bb]  6.11
62. COCC1CCCN1Cc1ccc(-c2cccc3c(=O)cc(N4CCOCC4)oc23)c2sc3ccccc3c12 (stereo not drawn) [4at]  6.05
63. O=c1cc(N2CCOCC2)oc2c(-c3ccc(CN4CCCCC4)c4c3sc3ccccc34)cccc12 [4cs]  6.05
64. C=CCNCc1ccc(-c2cccc3c(=O)cc(N4CCOCC4)oc23)c2sc3ccccc3c12 [4i]  6.05
65. C[C@@H]1COCCN1Cc1ccc(-c2cccc3c(=O)cc(N4CCOCC4)oc23)c2sc3ccccc3c12 [4ak]  6.04
66. N#Cc1cccn1NCc1ccc(-c2cccc3c(=O)cc(N4CCOCC4)oc23)c2sc3ccccc3c12 [4cm]  6.02
67. O=c1cc(N2CCOCC2)oc2c(-c3ccc(CN4CCC(F)(F)C4)c4c3sc3ccccc34)cccc12 [4ca]  6.00
68. CC1CC(C)CN(Cc2ccc(-c3cccc4c(=O)cc(N5CCOCC5)oc34)c3sc4ccccc4c23)C1 (stereo not drawn) [4an]  5.82
69. O=c1cc(N2CCOCC2)oc2c(-c3ccc(CN4CCCC(F)(F)C4)c4c3sc3ccccc34)cccc12 [4az]  5.69
70. O=c1cc(N2CCOCC2)oc2c(-c3ccc(CN4CCCCO4)c4c3sc3ccccc34)cccc12 [4bo]  5.68
71. O=c1cc(N2CCOCC2)oc2c(-c3ccc(CN4CCCC(C(F)(F)F)C4)c4c3sc3ccccc34)cccc12 (stereo not drawn) [4ap]  5.67
72. O=c1cc(N2CCOCC2)oc2c(-c3ccc(CN4CCC(C(F)(F)F)CC4)c4c3sc3ccccc34)cccc12 [4ao]  5.27
